Experimental data: patent US6541523B2, “Methods for treating or preventing fibromyalgia using very low doses of cyclobenzaprine” (Vela Pharmaceuticals, Inc., priority 1999, dated 2003)
Where two headings read alike, the source gives them in different places.

Assays:
[1] = test system: patients with fibromyalgia
Description: Quantification of improvement may be measured according to methods known in the art. For example, pain may be measured using tender point count, the McGill Pain Questionnaire, the Arthritis Impact Measurement Scales (AIMS), the Sickness Impact Profile (SIP), the Health Assessment Questionnaire (HAQ) functional disability index, the Symptom Checklist-90R, and dolorimeter scores. […] (Alarcon, Graciela, et al., “Advances in the Treatment of Fibromyalgia: Current Status and Future Directions”, Am. J. Med. Sciences, 315:397-404 (1998).)
(§1) The quality of sleep (“sleep disturbance”) may be determined, inter alia, by asking the patient if he/she awakened tired or nonrefreshed “never,” “seldom,” “often or usually,” or “always.” Replies of “often or usually” or “always” may be scored as positive and other replies as negative. Patients reports of well-being or relief from “zombie” or “spacey” feelings, feelings of being “run down,” and having difficultly concentrating during waking hours are indications of better quality of sleep or deep, refreshing sleep.
They were on a dose of ⅓ tablet of cyclobenzaprine (3 33 mg).
patient four, a person homemaker, presented with complaints of chest pain previously attributed to their known history of mitral valve prolapse. They also complained of a several year history of fatigue.
patient two, a active grandparent, presented with the new onset of cervical and lumbar muscular pains associated with poor quality sleep and fatigue. The patient was diagnosed with fibromyalgia.
patient seven, a person homemaker, presented with complaints of diffuse pain and fatigue.
patient three, a person homemaker, presented with complaints of right trapezius spasm. They had recently been started on paroxetine, 20 mg p.o. qd for mild depression, and had also noted disrupted sleep quality with frequent awakening with resultant fatigue and daytime somnolence. […] They were diagnosed with fibromyalgia and was begun on cyclobenzaprine 10 mg p.o. qHS for the diagnosis of fibromyalgia and possible sleep disturbance due to the SSRI paroxetine.
patient one, a person homemaker, had recently given birth to a healthy baby, and in during the later stages of pregnancy and in the post-partem period noted fatigue and exhaustion associated with multiple areas of muscular soreness.
patient six, a executive, presented with complaints of “burning pains” in their muscles, associated with sleep disturbance with frequent awakening and resultant fatigue.
patient five, a executive, had been tried on multiple medications by a “fibromyalgia specialist,” who according to the patient had performed over $2,000 in blood tests, diagnosing “yeast infection in the blood” and multiple allergies.

[2] = test system: patients with sleep disturbance; conditions: single patient report
Description: as §1

fibromyalgia patients [3] = conditions: cited from earlier work
fibromyalgia patients [4] = conditions: twenty to forty mgs per day; twelve fibromyalgia patients; cited from earlier work
[5] = test system: cyclobenzaprine-treated patients; conditions: cited from earlier work
fibromyalgia patients [6] = conditions: five mgs per day; some fibromyalgia patients; anecdotal; cited from earlier work
[7] = ⅓ tablet (3 33 mg), single patient report

CN(C)CCC=C1c2ccccc2C=Cc2ccccc21 [cyclobenzaprine, 3-(5H-Dibenzo[a,d]cyclohepten-5-ylidene)-N,N-dimethyl-1-propanamine]
Symptom response ([1]; 10 mg p.o. qHS, single patient report): helping their muscular pains | Course after stopping cyclobenzaprine ([1]; discontinuation of ¼ tablet (2.5 mg), single patient report): immediate return of all of their previous symptoms | Effect on sleep disturbance, fatigue and diffuse pain ([1]; less than 5 mg/day qHS, applicant's summary for many patients): surprisingly effective at treating the sleep disturbance | Symptom response ([1]; ½ tablet (5 mg) p.o. qHS, single patient report): symptoms abated | Side effects [1, 7]: no adverse effects | Symptom response [1, 7]: alleviated their symptoms | Sleep and energy response ([2]; ¼ to ½ tablet (2.5-5 mg)): improved sleep and increased energy, with resolution of their daytime somnolence | Side effects ([2]; ½ tablet (5 mg)): “grogginess” during the day | Difference in efficacy between regimens (fibromyalgia patients [3]; 10 mg/day vs 30 mg/day): no significant difference in efficacy | Tender points, quality of sleep and other symptoms (fibromyalgia patients [3]; 10 mg/day): decline in the number of tender points and improvement in the quality of sleep, anxiety, fatigue, irritable bowel syndrome and stiffness | Tender points, quality of sleep and other symptoms (fibromyalgia patients [3]; 30 mg/day): decline in the number of tender points and improvement in the quality of sleep, anxiety, fatigue, irritable bowel syndrome and stiffness | Alpha non-REM EEG sleep anomaly and mood ratings (fibromyalgia patients [4]): did not favorably change | Pain (tender point count and dolorimetry) (fibromyalgia patients [4]): did not experience decreased pain | Less common side effects ([5]; cyclobenzaprine treatment): nausea, tiredness, constipation, blurred vision, nervousness, confusion, abdominal pain and discomfort | Organ toxicity ([5]; recommended doses): No indications of organ toxicity | Toxic effects on overdose ([5]; three individuals who ingested between 260 to 900 mg): Toxic effects were reported | Response to treatment (fibromyalgia patients [6]): responded “favorably”

CNCCC=C1c2ccccc2CCc2ccccc21 [nortriptyline]
Response to trial of nortriptyline ([1]; fibromyalgia patient not helped by cyclobenzaprine 2.5 mg, dose not given): did well
